Experimental data from patent US20250144067A1, “PERSONALIZED STARVATION THERAPY FOR CANCER” (Faeth Therapeutics, Inc., priority 2021, published 2025).
Structures can show the parent of a compound that is named as a salt.

Key:
[1] = tested on: NCI-H292 lung cancer cells; test: FDA drug screening, complete media vs cholesterol-free media with simvastatin (TABLE 2); assay type: cell-based, human; conditions: for Cholesterol-free media + simvastatin (0.04 μM) / Complete Media: NCI-H292 cells
[2] = tested on: NCI-H292 lung cancer cells; test: FDA drug screening, complete media vs cholesterol-free media without statin (TABLE 1); assay type: cell-based, human
[3] = FDA drug library screen, cholesterol-free media with simvastatin 0.04 μM
[4] = FDA drug library screen, complete media
[5] = complete media minus cholesterol-free media + simvastatin, >0 enhanced anti-cancer activity, about 0 neutral, <0 antagonist
[6] = Complete minus Cholesterol-free, >0 enhanced anti-cancer activity, about 0 neutral, <0 antagonist
[7] = NCI-H292 cells, cholesterol-free media without statin
[8] = complete media vs cholesterol-free media + simvastatin (0.04 μM), >0 enhanced anti-cancer activity, about 0 neutral, <0 antagonist
[9] = complete vs cholesterol-free media, greater than 0 enhanced anti-cancer activity, about 0 neutral, below 0 antagonists
[10] = Complete minus Cholesterol-free, greater than 0 enhanced anti-cancer activity, about 0 neutral, below 0 antagonist
[11] = NCI-H292 cells, FDA drug library screen, cholesterol-free media without statin
[12] = NCI-H292 cells, FDA drug library screen, complete media
[13] = Complete minus Cholesterol-free, […]
[14] = FDA library drug in cholesterol-free media with simvastatin 0.04 μM
[15] = FDA library drug in complete media
[16] = NCI-H292 cells, cholesterol-free media without statin, FDA drug library screen
[17] = NCI-H292 cells, complete media, FDA drug library screen
[18] = complete vs cholesterol-free media, >0 enhanced anti-cancer activity, about 0 neutral, <0 antagonist
[19] = complete media vs cholesterol-free media + simvastatin (0.04 μM), […]
[20] = drug in cholesterol-free media with simvastatin 0.04 μM
[21] = NCI-H292 cells in cholesterol-free media without statin
[22] = NCI-H292 cells in complete media
[23] = cholesterol-free media with simvastatin 0.04 μM, cell growth value in FDA drug screen
[24] = complete media, cell growth value in FDA drug screen

Oc1c(I)cc(I)c2cccnc12 [Diiodohydroxyquinoline]
Cholesterol-free media + simvastatin (0.04 μM) [1, 3]: 0.94
Complete Media [1, 4]: 1.35
Difference [1, 5]: 0.41
Difference [2, 6]: −0.27
Cholesterol-free [2, 7]: 1.098
Complete ([2]; NCI-H292 cells, complete media): 0.8284

COc1ccc([C@@H]2Sc3ccccc3N(CCN(C)C)C(=O)[C@@H]2OC(C)=O)cc1 [Diltiazem (hydrochloride)]
Cholesterol-free media + simvastatin (0.04 μM) [1, 3]: 1.317
Complete Media [1, 4]: 1.159
Difference [1, 8]: −0.16
Cholesterol-free [2, 7]: 1.001
Complete ([2]; NCI-H292 cells, complete media): 0.6844
Difference [2, 9]: −0.32

OCC(S)CS (centres unmarked) [Dimercaprol]
Cholesterol-free media + simvastatin (0.04 μM) [1, 3]: 0.8801
Complete Media [1, 4]: 1.094
Difference [1, 5]: 0.21
Difference [2, 10]: −0.18
Cholesterol-free [2, 11]: 0.9919
Complete [2, 12]: 0.8115

O=S(=O)([O-])CCSSCCS(=O)(=O)[O-].[Na+].[Na+] [Dimesna]
Cholesterol-free media + simvastatin (0.04 μM) [1, 3]: 0.7165
Complete Media [1, 4]: 1.057
Difference ([1]; complete media minus cholesterol-free media + simvastatin, […]): 0.34
Difference [2, 13]: −0.18
Cholesterol-free [2, 11]: 1.073
Complete [2, 12]: 0.897

COC(=O)/C=C/C(=O)OC [Dimethyl fumarate]
Cholesterol-free media + simvastatin (0.04 μM) [1, 3]: 0.991
Complete Media [1, 4]: 0.9095
Difference [1, 8]: −0.08
Difference [2, 10]: −0.13
Cholesterol-free [2, 11]: 0.8617
Complete [2, 12]: 0.7326

Cc1ncc([N+](=O)[O-])n1C [Dimetridazole]
Cholesterol-free media + simvastatin (0.04 μM) [1, 14]: 1.602
Complete Media [1, 15]: 0.8915
Difference [1, 8]: −0.71
Cholesterol-free [2, 7]: 1.219
Complete ([2]; NCI-H292 cells, complete media): 0.8738
Difference [2, 9]: −0.35

CCCCC[C@H](O)/C=C/[C@@H]1[C@@H](C/C=C\CCCC(=O)O)[C@@H](O)C[C@H]1O.NC(CO)(CO)CO [Dinoprost (tromethamine salt)]
Cholesterol-free media + simvastatin (0.04 μM) [1, 14]: 1.671
Complete Media [1, 15]: 1.083
Difference [1, 8]: −0.59
Cholesterol-free [2, 7]: 1.291
Complete ([2]; NCI-H292 cells, complete media): 0.9605
Difference [2, 9]: −0.33

COc1ccc(-c2cc(=O)c3c(O)cc(O[C@@H]4O[C@H](CO[C@@H]5O[C@@H](C)[C@H](O)[C@@H](O)[C@H]5O)[C@@H](O)[C@H](O)[C@H]4O)cc3o2)cc1O [Diosmin]
Cholesterol-free media + simvastatin (0.04 μM) [1, 3]: 1.252
Difference [1, 8]: −0.10
Cholesterol-free [2, 16]: 0.7178
Complete [2, 17]: 1.465
Difference [2, 18]: 0.75

CN(C)CCOC(c1ccccc1)c1ccccc1 [Diphenhydramine (hydrochloride)]
Cholesterol-free media + simvastatin (0.04 μM) [1, 3]: 0.5789
Complete Media [1, 4]: 0.7429
Difference [1, 5]: 0.16
Difference [2, 6]: −0.19
Cholesterol-free [2, 7]: 1.083
Complete ([2]; NCI-H292 cells, complete media): 0.8936

OC(CCCN1CCCCC1)(c1ccccc1)c1ccccc1 [Diphenidol (hydrochloride)]
Cholesterol-free media + simvastatin (0.04 μM) [1, 3]: 0.9412
Complete Media [1, 4]: 1.206
Difference [1, 5]: 0.26
Cholesterol-free [2, 7]: 1.3
Complete ([2]; NCI-H292 cells, complete media): 0.8776
Difference [2, 9]: −0.42

COS(=O)(=O)[O-].C[N+]1(C)CCC(=C(c2ccccc2)c2ccccc2)CC1 [Diphenmanil (methylsulfate)]
Cholesterol-free media + simvastatin (0.04 μM) [1, 14]: 2.109
Complete Media [1, 15]: 1.508
Difference [1, 19]: −0.60
Cholesterol-free [2, 16]: 0.8176
Complete [2, 17]: 0.9244
Difference ([2]; complete vs cholesterol-free media, […]): 0.11

CN1CCC(OC(c2ccccc2)c2ccccc2)CC1 [Diphenylpyraline (hydrochloride)]
Cholesterol-free media + simvastatin (0.04 μM) [1, 3]: 0.641
Complete Media [1, 4]: 1.367
Difference [1, 5]: 0.73
Difference [2, 6]: −0.22
Cholesterol-free [2, 7]: 0.9623
Complete ([2]; NCI-H292 cells, complete media): 0.7446

Cn1c(=O)c2c(ncn2CC(O)CO)n(C)c1=O (centres unmarked) [Diphylline]
Cholesterol-free media + simvastatin (0.04 μM) [1, 20]: 1.247
Complete Media ([1]; drug in complete media): 1.05
Difference [1, 19]: −0.20
Difference [2, 13]: −0.69
Cholesterol-free [2, 21]: 1.559
Complete [2, 22]: 0.8732

CC1(C)[C@@H](O[C@H]2O[C@H](C(=O)[O-])[C@@H](O)[C@H](O)[C@H]2O[C@@H]2O[C@H](C(=O)[O-])[C@@H](O)[C@H](O)[C@H]2O)CC[C@]2(C)[C@H]3C(=O)C=C4[C@@H]5C[C@@](C)(C(=O)O)CC[C@]5(C)CC[C@@]4(C)[C@]3(C)CC[C@@H]12.[K+].[K+] [Dipotassium glycyrrhizinate]
Cholesterol-free media + simvastatin (0.04 μM) [1, 20]: 1.125
Complete Media ([1]; drug in complete media): 0.9331
Difference [1, 19]: −0.19
Difference [2, 13]: 0.00
Cholesterol-free [2, 16]: 1.01
Complete [2, 17]: 1.007

OCCN(CCO)c1nc(N2CCCCC2)c2nc(N(CCO)CCO)nc(N3CCCCC3)c2n1 [Dipyridamole]
Cholesterol-free media + simvastatin (0.04 μM) [1, 23]: 0.9652
Complete Media [1, 24]: 1.095
Difference [1, 5]: 0.13
Difference ([2]; Complete minus Cholesterol-free, greater than 0 enhanced anti-cancer activity, about 0 neutral, below 0 antagonists): −0.51
Cholesterol-free [2, 21]: 1.48
Complete [2, 22]: 0.9729

O=c1ccn([C@@H]2O[C@H](COP(=O)([O-])OP(=O)([O-])OP(=O)([O-])OP(=O)([O-])OC[C@H]3O[C@@H](n4ccc(=O)[nH]c4=O)[C@H](O)[C@@H]3O)[C@@H](O)[C@H]2O)c(=O)[nH]1.[Na+].[Na+].[Na+].[Na+] [Diquafosol (tetrasodium)]
Cholesterol-free media + simvastatin (0.04 μM) [1, 3]: 1.438
Complete Media [1, 4]: 1.601
Difference [1, 5]: 0.16
Difference [2, 10]: −0.16
Cholesterol-free [2, 11]: 0.9096
Complete [2, 12]: 0.7536

CC[C@H]1OC(=O)[C@H](C)[C@@H](O[C@H]2C[C@@](C)(OC)[C@@H](O)[C@H](C)O2)[C@H](C)[C@@H](O[C@@H]2O[C@H](C)C[C@H](N(C)C)[C@H]2O)[C@](C)(O)C[C@@H](C)[C@@H]2N[C@@H](COCCOC)O[C@H]([C@H]2C)[C@]1(C)O [Dirithromycin]
Cholesterol-free media + simvastatin (0.04 μM) [1, 3]: 1.565
Complete Media [1, 4]: 1.493
Difference [1, 8]: −0.07
Cholesterol-free [2, 16]: 0.918
Complete [2, 17]: 0.9938
Difference [2, 18]: 0.08

COC(=O)/C=C/C(=O)OCCN1C(=O)CCC1=O [Diroximel fumarate]
Cholesterol-free media + simvastatin (0.04 μM) [1, 3]: 0.9299
Complete Media [1, 4]: 1.101
Difference [1, 5]: 0.17
Difference [2, 6]: −0.30
Cholesterol-free [2, 7]: 1.046
Complete ([2]; NCI-H292 cells, complete media): 0.7458

CC(C)N(CCC(C(N)=O)(c1ccccc1)c1ccccn1)C(C)C (centres unmarked) [Disopyramide]
Cholesterol-free media + simvastatin (0.04 μM) ([1]; cholesterol-free media with simvastatin 0.04 μM, FDA drug library screen (TABLE 2)): 1.301
Complete Media ([1]; complete media, FDA drug library screen (TABLE 2)): 1.257
Difference ([1]; complete media minus cholesterol-free media + simvastatin (0.04 μM), >0 enhanced anti-cancer activity, about 0 neutral, <0 antagonist): −0.04
Difference [2, 10]: −0.15
Cholesterol-free [2, 11]: 1.106
Complete [2, 12]: 0.9575

CCN(CC)C(=S)SSC(=S)N(CC)CC [Disulfiram]
Cholesterol-free media + simvastatin (0.04 μM) [1, 3]: 0.005061
Complete Media [1, 4]: −0.0784
Difference [1, 8]: −0.08
Difference [2, 6]: −0.02
Cholesterol-free [2, 16]: 0.0139
Complete [2, 17]: −0.001922

O=C1c2c(O)cccc2Cc2cccc(O)c21 [Dithranol]
Cholesterol-free media + simvastatin (0.04 μM) [1, 23]: 0.8476
Complete Media [1, 24]: 0.9249
Difference [1, 5]: 0.08
Cholesterol-free [2, 7]: 1.314
Complete ([2]; NCI-H292 cells, complete media): 0.9897
Difference [2, 9]: −0.32

CC(CCc1ccc(O)cc1)NCCc1ccc(O)c(O)c1 (centres unmarked) [Dobutamine (hydrochloride)]
Cholesterol-free media + simvastatin (0.04 μM) [1, 3]: 0.8343
Complete Media [1, 4]: 1.237
Difference [1, 5]: 0.40
Difference [2, 6]: 0.01
Cholesterol-free [2, 16]: 1.125
Complete [2, 17]: 1.131

CC(=O)O[C@@]12CO[C@@H]1C[C@H](O)[C@@]1(C)C(=O)[C@H](O)C3=C(C)[C@@H](OC(=O)[C@H](O)[C@@H](NC(=O)OC(C)(C)C)c4ccccc4)C[C@@](O)([C@@H](OC(=O)c4ccccc4)[C@H]21)C3(C)C [Docetaxel (Trihydrate)]
Cholesterol-free media + simvastatin (0.04 μM) [1, 3]: 0.3708
Complete Media [1, 4]: 0.2794
Difference [1, 8]: −0.09
Difference [2, 6]: −0.05
Cholesterol-free [2, 16]: 0.2507
Complete [2, 17]: 0.2029

CC(=O)O[C@@]12CO[C@@H]1C[C@H](O)[C@@]1(C)C(=O)[C@H](O)C3=C(C)[C@@H](OC(=O)[C@H](O)[C@@H](NC(=O)OC(C)(C)C)c4ccccc4)C[C@@](O)([C@@H](OC(=O)c4ccccc4)[C@H]21)C3(C)C [Docetaxel]
Cholesterol-free media + simvastatin (0.04 μM) [1, 23]: 0.2547
Complete Media [1, 24]: 0.2778
Difference [1, 5]: 0.02
Difference [2, 6]: 0.04
Cholesterol-free [2, 16]: 0.1661
Complete [2, 17]: 0.2055

CC/C=C\C/C=C\C/C=C\C/C=C\C/C=C\C/C=C\CCC(=O)O [Docosahexaenoic Acid]
Cholesterol-free media + simvastatin (0.04 μM) [1, 20]: 1.034
Complete Media ([1]; drug in complete media): 0.8041
Difference [1, 8]: −0.23
Cholesterol-free [2, 16]: 1.175
Complete [2, 17]: 1.764
Difference [2, 18]: 0.59

CCCCC(CC)COC(=O)CC(C(=O)OCC(CC)CCCC)S(=O)(=O)O (centres unmarked) [Docusate (Sodium)]
Cholesterol-free media + simvastatin (0.04 μM) [1, 20]: 1.08
Complete Media ([1]; drug in complete media): 0.9061
Difference [1, 8]: −0.17
Cholesterol-free [2, 7]: 1.285
Complete ([2]; NCI-H292 cells, complete media): 0.839
Difference [2, 9]: −0.45
